Measurements taken from USRE43327E1, “Hydrophobic polyamine analogs and methods for their use” (Aminex Therapeutics, Inc., priority 2001, dated 2012).
Values joined by “and” are separate entries in the source; they are usually repeats but may differ in a detail not shown here. Equal values may be shown once.

What was measured:
Type in all cases: cell-based
A375 [1] = assay: Growth inhibition assay (MTS/PMS) with DFMO, A375; conditions: in the presence of DFMO (1-5 mM), 1 mM AG, 0.5 μM SPD, six days; repeat determinations; read-out: Cell Line EC50 A375
Protocol: (§1) Medias were obtained from Mediatech, Inc. (Herdon, Va.) and serums from Gibco BRL (Gaithersburg, Md.). 50 U/ml penicillin, 50 μg/ml streptomycin and 2 mM L-glutamine (all from Bio Whittaker, Walkersville, Md.) were included in all cultures. […] When cells were cultured with polyamines or ORI compounds, 1 mM aminoguanidine (AG; Sigma) was included to inhibit serum amine oxidase activity.

MDA-MB-231 [2] = assay: Growth inhibition assay (MTS/PMS) with DFMO, MDA-MB-231; conditions: in the presence of DFMO (1-5 mM), 1 mM AG, 0.5 μM SPD, six days; repeat determinations; read-out: Cell Line EC50 MDA-MB-231
Protocol: as §1

PC-3 [3] = assay: Growth inhibition assay (MTS/PMS) with DFMO, PC-3; conditions: in the presence of DFMO (1-5 mM), 1 mM AG, 0.5 μM SPD, six days; repeat determinations; read-out: Cell Line EC50 PC-3
Protocol: as §1

SK-OV-3 [4] = assay: Growth inhibition assay (MTS/PMS) with DFMO, SK-OV-3; conditions: in the presence of DFMO (1-5 mM), 1 mM AG, 0.5 μM SPD, six days; repeat determinations; read-out: Cell Line EC50 SK-OV-3
Protocol: as §1

[5] = tested on: 4 cell lines (A375, MDA-MB-231, PC-3, SK-OV-3); assay: Growth inhibition with DFMO, average over 4 cell lines; conditions: Table 3; average over cell lines, with DFMO; read-out: AVG. EC50
Protocol: Cells were plated in 96-well plates such that they would be in log growth for the duration of the assay. The day after plating, PAs were added to the cells, and growth, if any, permitted to continue for six days in the presence of 1 mM AG and 0.5 μM SPD to insure that any growth inhibition was not the result of depletion of external polyamines in the media. At the end of the six days, cell growth was measured by MTS/PMS dye assay (Cell Titer 96 Aqueous Non-Radioactive Cell Proliferation Assay; Promega, Madison, Wis.).

A375 [6] = assay: Growth inhibition assay, PA alone, A375; conditions: PA alone (no DFMO), six days; repeat determinations; read-out: Cell Line IC50 A375
Protocol: as §1

MDA-MB-231 [7] = assay: Growth inhibition assay, PA alone, MDA-MB-231; conditions: PA alone (no DFMO), six days; repeat determinations; read-out: Cell Line IC50 MDA-MB-231
Protocol: as §1

PC-3 [8] = assay: Growth inhibition assay, PA alone, PC-3; conditions: PA alone (no DFMO), six days; repeat determinations; read-out: Cell Line IC50 PC-3
Protocol: as §1

SK-OV-3 [9] = assay: Growth inhibition assay, PA alone, SK-OV-3; conditions: PA alone (no DFMO), six days; repeat determinations; read-out: Cell Line IC50 SK-OV-3
Protocol: as §1

SMILES: CN(C)c1cccc2c(S(=O)(=O)NCCCC[C@H](N)C(=O)NCCCNCCCCNCCCN)cccc12 [IIA20]
- EC50 (A375 [1]): 405 nM
- EC50 (MDA-MB-231 [2]): 1610 nM
- EC50 (PC-3 [3]): 463 nM
- EC50 (SK-OV-3 [4]): 2650 nM
- EC50 [5]: 1280 nM
- IC50 (A375 [6]): > 30000 nM
- IC50 (MDA-MB-231 [7]): > 30000 nM
- IC50 (PC-3 [8]): > 30000 nM
- IC50 (SK-OV-3 [9]): > 30000 nM

SMILES: CCS(=O)(=O)NCCCC[C@@H](N)C(=O)NCCCNCCCCNCCCN [IIB2]
- EC50 (A375 [1]): 7250 nM
- EC50 (PC-3 [3]): 3640 nM
- EC50 (SK-OV-3 [4]): > 30000 nM
- IC50 (A375 [6]): > 30000 nM
- IC50 (PC-3 [8]): > 30000 nM
- IC50 (SK-OV-3 [9]): > 30000 nM

SMILES: Cc1cc(C)c(S(=O)(=O)NCCCC[C@@H](N)C(=O)NCCCNCCCCNCCCN)c(C)c1 [IIB17]
- EC50 (A375 [1]): 1520 nM
- EC50 (PC-3 [3]): 919 nM
- EC50 (SK-OV-3 [4]): 26200 nM
- IC50 (A375 [6]): > 30000 nM
- IC50 (PC-3 [8]): > 30000 nM
- IC50 (SK-OV-3 [9]): > 30000 nM

SMILES: CCS(=O)(=O)N[C@@H](CCCCN)C(=O)NCCCNCCCCNCCCN [IID2]
- EC50 (A375 [1]): > 30000 nM
- EC50 (MDA-MB-231 [2]): > 30000 nM
- EC50 (PC-3 [3]): > 30000 nM
- EC50 (SK-OV-3 [4]): > 30000 nM
- EC50 [5]: > 30000 nM
- IC50 (A375 [6]): > 30000 nM
- IC50 (MDA-MB-231 [7]): > 30000 nM
- IC50 (PC-3 [8]): > 30000 nM
- IC50 (SK-OV-3 [9]): > 30000 nM

SMILES: Cc1cc(C)c(S(=O)(=O)NC(CCCCN)C(=O)NCCCNCCCCNCCCN)c(C)c1 (stereo not shown) [IID17]
- EC50 (A375 [1]): 5870 nM
- EC50 (MDA-MB-231 [2]): 5100 nM
- EC50 (PC-3 [3]): 4090 nM
- EC50 (SK-OV-3 [4]): 23900 nM
- EC50 [5]: 9740 nM
- IC50 (A375 [6]): > 30000 nM
- IC50 (MDA-MB-231 [7]): > 30000 nM
- IC50 (PC-3 [8]): > 30000 nM
- IC50 (SK-OV-3 [9]): > 30000 nM

SMILES: CCCCCCCC/C=C\CCCCCCCC(=O)NCCCC[C@H](N)C(=O)NCCCNCCCCNCCCN [IIIA1]
- EC50 (A375 [1]): 76 nM
- EC50 (MDA-MB-231 [2]): 197 nM
- EC50 (PC-3 [3]): 386 nM
- EC50 (SK-OV-3 [4]): 398 nM
- EC50 [5]: 264 nM
- IC50 (A375 [6]): > 30000 nM
- IC50 (MDA-MB-231 [7]): > 30000 nM
- IC50 (PC-3 [8]): > 30000 nM
- IC50 (SK-OV-3 [9]): > 30000 nM

SMILES: CCCCCCCC/C=C/CCCCCCCC(=O)NCCCC[C@H](N)C(=O)NCCCNCCCCNCCCN [IIIA2]
- EC50 (A375 [1]): 10 nM
- EC50 (MDA-MB-231 [2]): 29 nM
- EC50 (PC-3 [3]): 22 nM
- EC50 (SK-OV-3 [4]): 76 nM
- EC50 [5]: 34 nM
- IC50 (A375 [6]): > 30000 nM
- IC50 (MDA-MB-231 [7]): > 30000 nM
- IC50 (PC-3 [8]): > 30000 nM
- IC50 (SK-OV-3 [9]): > 30000 nM

SMILES: CCCCC/C=C\C/C=C\CCCCCCCC(=O)NCCCC[C@H](N)C(=O)NCCCNCCCCNCCCN [IIIA5]
- EC50 (A375 [1]): 84 nM
- EC50 (MDA-MB-231 [2]): 207 nM
- IC50 (A375 [6]): > 30000 nM
- IC50 (MDA-MB-231 [7]): > 30000 nM

SMILES: CCCCC/C=C/C/C=C/CCCCCCCC(=O)NCCCC[C@H](N)C(=O)NCCCNCCCCNCCCN [IIIA6]
- EC50 (A375 [1]): 18 nM
- EC50 (MDA-MB-231 [2]): 47 nM
- EC50 (PC-3 [3]): 60 nM
- EC50 (SK-OV-3 [4]): 95 nM
- EC50 [5]: 55 nM
- IC50 (A375 [6]): 22300 nM
- IC50 (MDA-MB-231 [7]): > 30000 nM
- IC50 (PC-3 [8]): 25800 nM
- IC50 (SK-OV-3 [9]): > 30000 nM

SMILES: C[C@H](CCC(=O)NCCCC[C@H](N)C(=O)NCCCNCCCCNCCCN)[C@H]1CC[C@H]2[C@@H]3[C@H](O)C[C@@H]4C[C@H](O)CC[C@]4(C)[C@H]3C[C@H](O)[C@]12C [IIIA7]
- EC50 (A375 [1]): 87 nM
- EC50 (MDA-MB-231 [2]): 215 nM
- EC50 (PC-3 [3]): 255 nM
- EC50 (SK-OV-3 [4]): 2940 nM
- EC50 [5]: 874 nM
- IC50 (A375 [6]): > 3000 nM
- IC50 (MDA-MB-231 [7]): > 3000 nM
- IC50 (PC-3 [8]): > 3000 nM
- IC50 (SK-OV-3 [9]): > 3000 nM

SMILES: CCCCCCCNCCCC[C@H](N)C(=O)NCCCNCCCCNCCCN [IVA6]
- EC50 (A375 [1]): 540 nM
- EC50 (MDA-MB-231 [2]): 510 nM
- EC50 (PC-3 [3]): 290 nM
- EC50 (SK-OV-3 [4]): 240 nM
- EC50 [5]: 395 nM
- IC50 (A375 [6]): > 100000 nM
- IC50 (MDA-MB-231 [7]): > 100000 nM
- IC50 (PC-3 [8]): > 100000 nM
- IC50 (SK-OV-3 [9]): > 100000 nM

SMILES: CCCCCCCCCCCCCCCCNCCCC[C@H](N)C(=O)NCCCNCCCCNCCCN [IVA11]
- EC50 (A375 [1]): 10 nM
- EC50 (MDA-MB-231 [2]): 19 nM
- EC50 (PC-3 [3]): 46 nM
- EC50 (SK-OV-3 [4]): 81 nM
- EC50 [5]: 39 nM
- IC50 (A375 [6]): > 3000 nM
- IC50 (MDA-MB-231 [7]): > 3000 nM
- IC50 (PC-3 [8]): > 3000 nM
- IC50 (SK-OV-3 [9]): > 3000 nM

SMILES: CCCC/C=C\CCCCCCCCCCNCCCC[C@H](N)C(=O)NCCCNCCCCNCCCN [IVA18]
- EC50 (A375 [1]): 50 nM and 61 nM
- EC50 (PC-3 [3]): 75 nM
- EC50 (SK-OV-3 [4]): 140 nM
- EC50 [5]: 79 nM
- IC50 (PC-3 [8]): > 3000 nM
- IC50 (SK-OV-3 [9]): > 3000 nM

SMILES: CC(C)(C)CCNCCCC[C@H](N)C(=O)NCCCNCCCCNCCCN [IVA22]
- EC50 (A375 [1]): 739 nM
- EC50 (MDA-MB-231 [2]): 1660 nM
- EC50 (PC-3 [3]): 711 nM
- EC50 (SK-OV-3 [4]): 937 nM
- EC50 [5]: 1010 nM
- IC50 (A375 [6]): > 100000 nM
- IC50 (MDA-MB-231 [7]): > 100000 nM
- IC50 (PC-3 [8]): > 100000 nM
- IC50 (SK-OV-3 [9]): > 100000 nM

SMILES: NCCCNCCCCNCCCNC(=O)[C@@H](N)CCCCNCC1CC2C=CC1C2 (stereo partly shown) [IVA25]
- EC50 (A375 [1]): 1040 nM
- EC50 (MDA-MB-231 [2]): 3550 nM
- EC50 (PC-3 [3]): 710 nM
- EC50 (SK-OV-3 [4]): 2300 nM
- EC50 [5]: 1900 nM
- IC50 (A375 [6]): > 100000 nM
- IC50 (MDA-MB-231 [7]): > 100000 nM
- IC50 (PC-3 [8]): > 100000 nM
- IC50 (SK-OV-3 [9]): > 100000 nM
